From patent US20050079503A1, “Binding domain of Siah (seven in absentia homolog) protein” (PETER MacCALLUM CANCER INSTITUTE, ST. VINCENT'S INSTITUTE …, priority 2001, published 2005) come the findings set out here.

Positions count from the first letter of the chain named. “Also recorded” adds a separate entry of the source. *: point of attachment. Biotin = O=C1N[C@H]2[C@H](CS[C@H]2CCCCC(=O)*)N1

The target of assay [1] is T1, mutant MBP-Siah1a-ZC containing a Leu211 to Arg mutation (Mus musculus, UniProt P61092, L211R).
T1 construct: made in house; the making of the mutant is not described
T1 sequence (P61092 80-282 L211R): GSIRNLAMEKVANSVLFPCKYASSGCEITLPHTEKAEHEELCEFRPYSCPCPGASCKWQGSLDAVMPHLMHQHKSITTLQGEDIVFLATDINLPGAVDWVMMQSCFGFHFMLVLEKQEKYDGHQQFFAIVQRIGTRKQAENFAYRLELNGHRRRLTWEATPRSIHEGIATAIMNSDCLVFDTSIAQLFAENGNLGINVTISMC
The assay is described as follows: ELISA-based binding of biotinylated plectin peptide to mutant Siah substrate-binding domain. To be noted: peptide captured on Neutravidin plate at 4 μg/ml; ABTS read at A405. The protocol:
(§1) Siah SBD binding to the plectin peptide (Biotin-[…]-NH2 corresponding to residues 95-117 of human plectin) was assessed by capturing biotinylated peptide on a 96-well plate coated with 0.5 μg Neutravidin per well. Peptide was captured for 30 min at room temperature at a concentration of 4 μg/ml. MBP-Siah1a-ZC fusion protein was bound to the peptide for 50 min at room temperature (or the controls of buffer alone (PBS/tween 20) or mutant MBP-Siah1a-ZC containing a Leu211 to Arg mutation). Bound protein was quantitated by rabbit anti-MBP antibody (1:300 dilution), then HRP conjugated goat-anti-rabbit antibody. Detection utilised ABTS substrate read at A405.
(§2) Following the identification of a Siah binding motif present in PHYL (RPVAXVXPXXR), a protein database search detected a number of proteins with conserved motifs, including plectin. The Applicants utilised a synthetic peptide corresponding to the sequence […] in plectin to test binding to Siah in an ELISA-based assay, where the underlined sequence corresponds to the amino acids conserved with the PHYL motif. […] Furthermore, as other Siah binding proteins are identified in this way it is predicted that the sequence of the optimal binding motif will be further refined.
(In general: In an ELISA, binding on a coated surface is turned into a signal by an enzyme label.)

In assay [2] the target is T2, MBP-Siah1a-ZC fusion protein (native Siah substrate-binding domain) (Mus musculus, UniProt P61092).
T2 construct: made in house; host or cells: E. coli BL21DE3
T2 sequence (P61092 80-282): T1 sequence (P61092 80-282 L211R) with R132L
The assay is described as follows: ELISA-based binding of biotinylated plectin peptide to Siah substrate-binding domain. To be noted: peptide captured on Neutravidin plate at 4 μg/ml; ABTS read at A405. The method, then: as §1, §2

For the next assay, the target named is T3, Siah (Mus musculus, UniProt P61092).
T3 construct: made in house; host or cells: bacteria
T3 sequence (P61092 1-282): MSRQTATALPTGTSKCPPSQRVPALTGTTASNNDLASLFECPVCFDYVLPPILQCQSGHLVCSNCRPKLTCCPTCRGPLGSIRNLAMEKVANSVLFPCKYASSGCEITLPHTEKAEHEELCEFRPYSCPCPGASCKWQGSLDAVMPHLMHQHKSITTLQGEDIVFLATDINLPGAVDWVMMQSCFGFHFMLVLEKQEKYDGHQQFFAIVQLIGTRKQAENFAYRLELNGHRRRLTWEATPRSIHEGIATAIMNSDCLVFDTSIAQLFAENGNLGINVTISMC
The assay is described as follows: Interaction studies using bacterially expressed proteins. Type of assay: binding. From the text: PHYL is known to interact and function with SINA, the Drosophila orthologue of mammalian Siah, in the targeted degradation of the transcriptional repressor tramtrack 88 (TTK88). Applicants have shown that it interacts similarly with mammalian Siah.

Assay [3] deals with T4, mutant form of Siah (Leu211 to Arg) (Mus musculus, UniProt P61092, L211R).
T4 construct: made in house
T4 sequence (P61092 80-282 L211R): T1 sequence (P61092 80-282 L211R)
Put plainly: Binding of PHYL to mutant form of Siah. To be noted: method not stated.

Turning to “Biotin-ASLQRVRRPVAMVMPARRTPHVQ-NH2 [plectin peptide]”, the “binding to mutant form of Siah substrate-binding domain (Leu211 to Arg)” value in assay [1] was “not”. For the same molecule, the “binding to native Siah substrate-binding domain” value in assay [2] is “bound; also recorded: binds”.

B1: PHYL: phyllopod (PHYL) protein from Drosophila (protein, UniProt Q27934 1-400, looked up)
Protein phyllopod: MSTNQQQQANPSAAVAAPAASSEYLKRTCLICGCHTNQTINIYEPRSGPNIVQLIQAKFKFQPLNEDKFLCFSCNNWLINWHSLQAVNSNEAESQSQSPSHMGNSVLQQERTKLRPVAMVRPTVRVQPQSQPQLQPQVPINPTPAPIVYSKRRASRRSASVSRMSRVLRQCCVESLRRSPKKRNQQSVFVCLRPQGQKRSNAICKVECVAPRRKPVERLVKDVAATATPTPVLNTQSTPTYQRFPQPSVDGKVVAMFRRLGTTLSREEPAAYSAESNPACSKLPQIMSPLKEAPRWTRDLDDDEILLEFDTAISEVLPTARYQVTHEENKENQQAQEMELELEEEEEVDGRAELEVVQEAEAPLEPQSHHKQGNSHQNSHQASIQLAGLRLPMGLSISLV
On to B1, for which, in the assay with Siah, the “affinity of interaction with Siah (in words)” value is on record as “high affinity”. Further, the “binding to mutant form of Siah” value in assay [3] is reported as “does not bind”.
